Ten compounds from ChEMBL document CHEMBL5030539, “Potent and Selective Inhibitors of the Epidermal Growth Factor Receptor to Overcome C797S-Mediated Resistance” (J Med Chem, 2021) can be followed below.

≈ marks a conversion by molar mass, not a printed value. Calls of active or inactive are those of the source. The rule behind the calls is not given here.

In general, IC50 refers to the point on the concentration scale where inhibition reaches its midpoint. Broadly, the logD is the decadic logarithm of the distribution of all forms, ionised or not, between an organic phase and buffer at a given pH. Lower therefore signals a more hydrophilic compound. Usually solubility stands for the dissolved amount per volume that the medium holds. The low end stands for a poorly soluble substance, the high end for a readily soluble substance. As usually defined, the pKa is the negative logarithm of the acid dissociation constant.

Data set [1] can be described thus: Plasma protein binding in human plasma assessed as unbound fraction. The data set is classed as ADME, cell-free.
A short description of data set [2]: Inhibition of EGFR Ex19del/T790M/C797S triple mutant (unknown origin) incubated for 15 min measured by -CisBio HTRF KinEASE TK. The arrangement: species or system Homo sapiens. (In general: In TR-FRET formats the signal depends on donor and acceptor labels being close together.)
Data set [3] can be described thus: Lipophilicity, log D of the compound at pH 7.4. The data set is classed as physicochemical. Particulars: buffer.
Data set [4] can be described thus: Intrinsic permeability of compound across apical to basolateral side in human Caco-2 cells. The data set is classed as ADME, cell-based. Particulars: read-out: permeability. Background: Caco-2 cells form a polarised layer with tight junctions and transporters.
A short description of data set [5]: Intrinsic clearance in rat hepatocyte measured per 10^6 cells. The data set is classed as ADME, tissue-based. Particulars: hepatocytes.
Data set [6] in a line: Inhibition of wild type EFGR expressed in human LoVo cell line assessed as inhibition of EGF-stimulated EGFR phosphorylation potency measured after 2 hrs by HRTF assay. The class given is functional.
Data set [7] can be described thus: Intrinsic clearance in human liver microsomes. The class given is ADME, Microsome. Particulars: read-out: CLH.
Data set [8] is described as follows: Aqueous solubility of the compound at pH 7.4. The class given is physicochemical. Particulars: buffer.
Data set [9] can be described thus: Dissociation constant, pKa of compound. The class given is physicochemical.
Another data set is filed under the species Homo sapiens. Put plainly: Inhibition of EGFR Ex19del/T790M/C797S triple mutant (unknown origin) assessed as enzyme residence time measured by -biacore direct binding assay. On the technique in general: In SPR one partner is held on a chip, and binding of the other changes the refractive index at the surface.
Data set [10] has as its target Epidermal growth factor receptor (Homo sapiens, UniProt P00533). Kind of data set: Inhibition of Wild type EGFR (unknown origin).
Data set [11] can be described thus: Inhibition of EGFR Ex19del/T790M/C797S triple mutant (unknown origin) expressed in human NCI-H1975 cells assessed as protein phosphorylation measured after 2 hrs by ELISA. Particulars: NCI-H1975, 2 h. The data set is classed as cell-based.
A short description of data set [12]: Inhibition of EGFR Exon19Del/C797S double mutant (unknown origin) by biochemical assay. The arrangement: species or system Homo sapiens.
Data set [13] can be described thus: Inhibition of EFGR Ex19del/T790M/C797S triple mutant (unknown origin) expressed in human PC-9-VanR cells assessed as inhibition of EGF-induced phosphorylation measured after 2 hrs by ELISA. The class given is cell-based. Particulars: PC-9, 2 h.
The nature of data set [14]: Inhibition of EFGR Ex19del (unknown origin) expressed in human PC-9 cells assessed as inhibition of EGF-induced phosphorylation measured after 2 hrs by ELISA. Particulars: PC-9, 2 h. The class given is cell-based.
Data set [15] concerns PC-9. Put plainly: In vivo inhibition of EGFR in human PC-9-VanR cells harboring EGFR Ex19del/T790M/C797S triple mutant xenografted in NSG mouse model assessed as inhibition of S6 phosphorylation in tumor at 50 mg/kg, sc bid for 21 days by immunoblot analysis. The data set is classed as functional, organism-based. Particulars: time 21.0 day.
Data set [16] has as its system PC-9. Put plainly: In vivo inhibition of EGFR in human PC-9-VanR cells harboring EGFR Ex19del/T790M/C797S triple mutant xenografted in NSG mouse model assessed as inhibition of EGFR phosphorylation in tumor at 50 mg/kg, sc bid for 21 days by immunoblot analysis. The class given is functional, organism-based. Particulars: time 21.0 day.
Data set [17] has as its target Epidermal growth factor receptor (Homo sapiens, UniProt P00533, L858R/T790M).
Data set [18] can be described thus: Toxicity in mouse NSG assessed as change in body weight at 50 mg/kg, sc bid for 14 to 21 days. Particulars: in vivo, time 14-21 day. The class given is organism-based.
Data set [19] has as its system PC-9. Kind of data set: In vivo inhibition of EGFR in human PC-9-VanR cells harboring EGFR Ex19del/T790M/C797S triple mutant xenografted in NSG mouse model assessed as inhibition of ERK phosphorylation in tumor at 50 mg/kg, sc bid for 21 days by immunoblot analysis. The data set is classed as functional, organism-based. Particulars: time 21.0 day.
In data set [20] the test system is PC-9. Kind of data set: In vivo inhibition of EGFR in human PC-9-VanR cells harboring EGFR Ex19del/T790M/C797S triple mutant xenografted in NSG mouse model assessed as inhibition of Akt phosphorylation in tumor at 50 mg/kg, sc bid for 21 days by immunoblot analysis. The data set is classed as functional, organism-based. Particulars: time 21.0 day.
Data set [21] has as its system PC-9. Put plainly: Antitumour activity against human PC-9-VanR cells harboring EGFR Ex19del/T790M/C797S triple mutant xenografted in NSG mouse model assessed as tumour growth inhibition at 50 mg/kg, sc bid for 21 days. The class given is functional. Particulars: PC-9, sc, 504 h, time 21 day, read-out: TGI.
The subject of another data set is NCI-H1975. Put plainly: Antitumour activity against human NCI-H1975 cells harboring EGFR L858R/T790M double mutant xenografted in NSG mouse model assessed as tumour growth inhibition at 50 mg/kg, sc bid for 14 days relative to control. The data set is classed as functional. Particulars: 336 h, time 14 day, read-out: TGI.

Epidermal growth factor receptor (Homo sapiens, UniProt P00533), sequence (P00533 whole entry): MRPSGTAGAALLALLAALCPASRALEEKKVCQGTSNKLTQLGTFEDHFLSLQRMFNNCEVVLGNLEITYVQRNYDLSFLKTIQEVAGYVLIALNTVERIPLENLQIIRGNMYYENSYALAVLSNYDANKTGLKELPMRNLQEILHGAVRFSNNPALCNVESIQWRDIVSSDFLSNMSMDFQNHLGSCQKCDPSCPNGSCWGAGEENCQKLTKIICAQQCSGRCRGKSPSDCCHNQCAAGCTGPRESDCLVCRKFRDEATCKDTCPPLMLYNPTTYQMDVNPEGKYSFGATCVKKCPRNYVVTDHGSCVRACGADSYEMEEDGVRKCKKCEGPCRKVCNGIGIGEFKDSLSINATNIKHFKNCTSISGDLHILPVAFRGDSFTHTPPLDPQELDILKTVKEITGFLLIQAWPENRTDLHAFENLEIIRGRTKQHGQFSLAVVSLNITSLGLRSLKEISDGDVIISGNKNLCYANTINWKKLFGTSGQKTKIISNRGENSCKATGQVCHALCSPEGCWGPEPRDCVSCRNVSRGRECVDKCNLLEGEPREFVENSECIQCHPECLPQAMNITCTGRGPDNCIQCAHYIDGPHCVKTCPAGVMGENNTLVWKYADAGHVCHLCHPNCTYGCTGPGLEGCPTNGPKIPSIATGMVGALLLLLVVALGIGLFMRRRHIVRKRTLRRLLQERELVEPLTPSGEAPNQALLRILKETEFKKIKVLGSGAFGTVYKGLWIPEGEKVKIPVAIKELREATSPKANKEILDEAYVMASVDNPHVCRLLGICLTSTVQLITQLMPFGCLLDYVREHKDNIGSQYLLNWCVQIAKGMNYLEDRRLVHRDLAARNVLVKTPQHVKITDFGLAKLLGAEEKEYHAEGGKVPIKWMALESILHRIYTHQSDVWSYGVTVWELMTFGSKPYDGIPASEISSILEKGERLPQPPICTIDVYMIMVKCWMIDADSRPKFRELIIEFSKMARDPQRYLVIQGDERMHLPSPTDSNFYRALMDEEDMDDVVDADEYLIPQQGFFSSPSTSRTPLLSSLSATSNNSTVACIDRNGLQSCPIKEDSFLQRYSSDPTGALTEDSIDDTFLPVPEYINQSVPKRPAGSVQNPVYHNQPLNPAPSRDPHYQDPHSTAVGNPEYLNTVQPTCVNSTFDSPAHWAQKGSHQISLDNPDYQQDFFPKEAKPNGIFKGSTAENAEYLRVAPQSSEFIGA
Epidermal growth factor receptor (Homo sapiens, UniProt P00533, L858R/T790M), sequence (P00533 25-1210 T790M/L858R limits assumed): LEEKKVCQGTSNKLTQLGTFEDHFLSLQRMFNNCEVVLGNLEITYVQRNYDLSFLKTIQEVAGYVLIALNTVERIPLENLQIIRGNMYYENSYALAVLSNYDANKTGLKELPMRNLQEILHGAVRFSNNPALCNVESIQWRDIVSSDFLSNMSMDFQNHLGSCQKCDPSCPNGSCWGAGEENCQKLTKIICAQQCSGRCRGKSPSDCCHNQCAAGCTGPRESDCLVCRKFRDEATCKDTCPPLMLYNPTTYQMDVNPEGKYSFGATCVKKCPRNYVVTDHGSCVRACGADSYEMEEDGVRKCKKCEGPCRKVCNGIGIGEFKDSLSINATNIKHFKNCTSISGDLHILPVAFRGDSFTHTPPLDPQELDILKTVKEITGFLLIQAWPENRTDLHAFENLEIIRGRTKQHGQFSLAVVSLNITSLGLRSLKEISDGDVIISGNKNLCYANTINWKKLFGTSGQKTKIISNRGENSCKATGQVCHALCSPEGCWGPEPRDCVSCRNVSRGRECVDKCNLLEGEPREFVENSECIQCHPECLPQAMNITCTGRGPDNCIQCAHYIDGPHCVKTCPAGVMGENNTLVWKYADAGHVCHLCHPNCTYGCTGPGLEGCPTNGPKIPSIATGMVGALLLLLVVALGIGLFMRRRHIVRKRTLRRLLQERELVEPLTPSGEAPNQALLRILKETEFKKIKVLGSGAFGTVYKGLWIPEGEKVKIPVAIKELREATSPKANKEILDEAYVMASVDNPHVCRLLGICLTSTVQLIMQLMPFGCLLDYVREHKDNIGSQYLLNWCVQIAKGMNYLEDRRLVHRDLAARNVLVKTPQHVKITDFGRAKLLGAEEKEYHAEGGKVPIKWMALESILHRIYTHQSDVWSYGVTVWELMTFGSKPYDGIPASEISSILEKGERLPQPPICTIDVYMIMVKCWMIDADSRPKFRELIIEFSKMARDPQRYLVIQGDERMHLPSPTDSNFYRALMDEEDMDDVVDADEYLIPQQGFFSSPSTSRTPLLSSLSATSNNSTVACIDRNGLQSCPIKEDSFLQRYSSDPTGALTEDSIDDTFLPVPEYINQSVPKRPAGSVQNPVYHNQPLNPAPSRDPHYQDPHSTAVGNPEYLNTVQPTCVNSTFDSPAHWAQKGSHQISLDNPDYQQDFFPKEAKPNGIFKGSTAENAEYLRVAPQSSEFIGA

As for `COc1cc(N2CCC(N(C)C)CC2)c(-c2cnn(C)c2)cc1Nc1ncc(Cl)c(Nc2ccccc2P(C)(C)=O)n1`, the fraction unbound in data set [1] (read-out: Fu) was 0.272. In addition, the values for the IC50 in [2], in data set [6] and in data set [10] were 0.00019 µM, 0.101 µM and 0.0017 µM, respectively. Besides, in data set [3], the pH-dependent lipophilicity (logD) came out at 1.9. The Papp A→B at 10 µM in data set [4] is less than 0.24 ×10⁻⁶ cm/s. Besides, in data set [5], the CLH is less than 1 uL/min/10^6 cells. Also, in [7], the microsomal CLint was found to be 31 µL/min/mg. In data set [8], this compound had a solubility of more than 1000 µM. Further, the pKa in data set [9] came to 9.4. The TIME in the data set filed under Homo sapiens stood at 1.08 h.
For the compound `COc1cc(N2CCOCC2)c(-c2cn[nH]c2)cc1Nc1ncc(Cl)c(Nc2ccccc2P(C)(C)=O)n1`, the fraction unbound in [1] (read-out: Fu) is 0.009. The same compound registered a pH-dependent lipophilicity (logD) in [3] of 3.4. In addition, the Papp A→B at 10 µM in [4] was determined as 18 ×10⁻⁶ cm/s. Besides, the 50% inhibitory concentration (IC50) was 2.14 µM in data set [6] and 1.09 µM in [11]. The microsomal CLint in data set [7] was 28 µL/min/mg. This compound gave a solubility in data set [8] of less than 3 µM. For the same compound, the TIME in the data set listed under Homo sapiens was found to be 3.97 h.
For the compound `COc1cc(N2CCC(N(C)C)CC2)c(-c2cn[nH]c2)cc1Nc1ncc(Cl)c(Nc2ccccc2P(C)(C)=O)n1`, the fraction unbound in data set [1] (read-out: Fu) worked out at 0.19. Moreover, the IC50 was determined as 0.0005 µM in data set [2], 0.373 µM in data set [6], 0.0009 µM in data set [10] and 2.01 µM in data set [11]. This compound also returned a log distribution coefficient (logD) in data set [3] of 1.8. Also, the Papp A→B at 10 µM in [4] came to 0.24 ×10⁻⁶ cm/s. For the same compound, the CLH in data set [5] is given as less than 1 uL/min/10^6 cells. Further, the microsomal CLint in [7] is 23 µL/min/mg. Moreover, the solubility in data set [8] was more than 1000 µM. Besides, the TIME in the data set filed under Homo sapiens was found to be 2.3 h.
As for `CCP(=O)(CC)c1ccccc1Nc1nc(Nc2cc(-c3cnn(C)c3)c(N3CCOCC3)cc2OC)ncc1Cl`, the fraction unbound in data set [1] (read-out: Fu) worked out at 0.041. Besides, the IC50 in data set [2] came out at 0.0002 µM; in data set [10], 0.0024 µM; in [11], 0.139 µM. The same compound showed a pH-dependent lipophilicity (logD) in data set [3] of 4. The Papp A→B at 10 µM in [4] was 78 ×10⁻⁶ cm/s. The CLH in [5] turned out to be 67 uL/min/10^6 cells. Further, the microsomal CLint in data set [7] is 71 µL/min/mg. In the data set listed under Homo sapiens, the TIME is 1.83 h.
On to `COc1cc(N2CCC(N3CCN(C)CC3)CC2)c(-c2cn[nH]c2)cc1Nc1ncc(Cl)c(Nc2ccccc2P(C)(C)=O)n1`, for which, in data set [1] (read-out: Fu), the fraction unbound was 0.1. The IC50 in data set [2] stood at 0.0003 µM; in data set [6], 0.726 µM; in data set [11], 0.498 µM. In addition, in data set [3], the logD was 2.5. In [7], the microsomal CLint came to 28 µL/min/mg. In data set [8], this compound registered a solubility of more than 1000 µM. Also, the TIME in the data set listed under Homo sapiens was 2.2 h.
Take `COc1cc(N2CCN(C)CC2)c(-c2cnn(C)c2)cc1Nc1ncc(Cl)c(Nc2ccccc2P(C)(C)=O)n1`: the fraction unbound in [1] (read-out: Fu) turned out to be 0.243. Moreover, the IC50 worked out at 0.00023 µM in data set [2], 0.079 µM in data set [6], 0.0033 µM in [10] and 0.241 µM in data set [11]. This compound registered a logD in data set [3] of 2.4. Further, the Papp A→B at 10 µM in data set [4] was 2.6 ×10⁻⁶ cm/s. Moreover, the CLH in data set [5] is on record as less than 1 uL/min/10^6 cells. Besides, in [7], the microsomal CLint was found to be 24 µL/min/mg. In addition, the solubility in data set [8] is more than 1000 µM. This compound displayed a pKa in data set [9] of 7.6. Also, the TIME in the data set filed under Homo sapiens is 2.65 h.
Consider `C=CC(=O)Nc1cc(Nc2nccc(-c3cn(C)c4ccccc34)n2)c(OC)cc1N(C)CCN(C)C` [OSIMERTINIB], for which, in data set [12], the IC50 came to 0.044 µM.
Consider `COc1cc(N2CCC(N3CCN(C)CC3)CC2)ccc1Nc1ncc(Cl)c(Nc2ccccc2P(C)(C)=O)n1` [BRIGATINIB], for which the fraction unbound in data set [1] worked out at 0.155. The IC50 turned out to be 0.007 µM in data set [2]; 2.03 µM in data set [6]; 2.68 µM in [13]; 0.132 µM in [12]; 0.357 µM in data set [14]; 0.459 µM in data set [11]. Further, the log distribution coefficient (logD) in data set [3] stood at 2.3. For the same compound, the Papp A→B at 10 µM in data set [4] turned out to be 4.7 ×10⁻⁶ cm/s. Also, the microsomal CLint in data set [7] was found to be 3.1 µL/min/mg. The compound also displayed a solubility in data set [8] of more than 1190 µM. Besides, the TIME in the data set filed under Homo sapiens amounted to 0.333 h.
In the case of `COc1cc(N2CCOCC2)c(-c2cnn(C)c2)cc1Nc1ncc(Cl)c(Nc2ccccc2P(C)(C)=O)n1`, in [1] (read-out: Fu), the fraction unbound amounted to 0.07. Besides, the IC50 stood at 0.0002 µM in data set [2]; 1.18 µM in data set [6]; 0.739 µM in data set [13]; 0.032 µM in data set [17]; 0.052 µM in [14]; 0.0044 µM in [10]. Moreover, the IC50 in [11] was found to be 0.122 µM. In addition, the logD in data set [3] came to 3. Besides, the outcome in the data set on PC-9 [15], with PC-9 [16], in the data set with PC-9 [19] and in the data set on PC-9 [20] was Active. Also, in [4], the Papp A→B at 10 µM was 61 ×10⁻⁶ cm/s. This compound returned a CLH in data set [5] of 16 uL/min/10^6 cells. In addition, the microsomal CLint in data set [7] was found to be 49 µL/min/mg. In addition, in data set [8], the solubility is 8.7 µM (≈ 4.94 µg/mL). Moreover, the Activity entry in data set [18] is “Toxic”. The inhibition in vivo at 50 mg/kg with PC-9 [21] was 52%; in the data set on NCI-H1975, 87%. In addition, in the data set listed under Homo sapiens, the TIME was 1.37 h.
Turning to `COc1cc(N2CCC(N3CCN(C)CC3)CC2)c(-c2cnn(C)c2)cc1Nc1ncc(Cl)c(Nc2ccccc2P(C)(C)=O)n1`, the fraction unbound in [1] (read-out: Fu) came to 0.228. Besides, the IC50 in [2] came out at 0.00032 µM; in data set [6], 0.14 µM; in data set [10] it was 0.00092 µM; in [11], 0.091 µM. The logD in [3] was 2.7. Also, the Papp A→B at 10 µM in [4] is less than 0.62 ×10⁻⁶ cm/s. This compound displayed a CLH in data set [5] of less than 1 uL/min/10^6 cells. The microsomal CLint in data set [7] was determined as 21 µL/min/mg. This compound also gave a solubility in [8] of more than 1000 µM. For the same compound, in the data set listed under Homo sapiens, the TIME worked out at 2.52 h.
